In US10259815B2, “Gabaergic ligands and their uses” (UWM Research Foundation, Inc., priority 2015, dated 2019):
“Also recorded” adds a separate entry of the source.

Assays:
[1] = Liver microsomal stability, dog; format: in vitro ADME; conditions: for Dog Liver microsome stability (reported in % remaining): 37° C., 4 μM compound, 30 minutes
Procedure: (§1) In vitro metabolism studies were done in mouse, rat, human, and dogs cells (TABLE 2).
(§2) In vitro liver microsomal studies were completed to measure the stability of the compounds against degradation in various species' liver microsomes.
(§3) Compound was incubated in hepatic microsomes over a 30-minute incubation period at 37° C. Incubations both with and without NADPH (2 mM) were performed in a 96-well plate format. The reaction was initiated with the addition of substrate and was terminated by protein precipitation. All incubations were performed using a final substrate concentration of 4 μM in 50 mM sodium phosphate buffer, pH 7.4. The final organic solvent content was 0.5% acetonitrile and 0.02% DMSO. The amount of enzyme present was fixed at 1.11 mg/mL protein irrespective of the species of microsomes used. Samples were analyzed by LC/MS-MS to determine the percent loss in the NAPDH incubations relative to the NADPH free incubations.

[2] = tested on: Sprague Dawley male rats; test: Mechanical hyperalgesia (von Frey) in CFA-induced inflammatory pain rat model; format: in vivo; conditions: for mechanical hyperalgesia in CFA-induced inflammatory pain: cumulative i.p. dosing, 3 days after CFA; for selectivity of antihyperalgesic effect in three-assay comparison: versus rate-suppressing and muscle-relaxant activity
Procedure: Raw data (paw withdrawal threshold, expressed in g of von Frey filament) was converted to a maximal possible effect value according the following equation: % MPE=[(test threshold(g)−control threshold(g)/(pre-CFA threshold−control threshold)]×100.
Complete Freund's adjuvant (CFA) contains Mycobacterium butyricum, inducing inflammation and an increase in paw thickness. 0.1 mL of CFA was injected in the right hind paw of Sprague Dawley male rats under isoflurane anaesthesia.
Mechanical hyperalgesia. Mechanical hyperalgesia was measured 3 days after CFA treatment. Rats (n=6) were placed in elevated boxes with a mesh floor. Von Frey filaments (expressed in g) were applied perpendicularly to the hindpaws, starting with the lowest filament (1.4 g) then increased until hindpaw withdrawal was observed. After each measurement, rats received the next dose of drug (every 20 min) until the maximum threshold (26 g) was observed. For the antagonist study, rats were pretreated with the benzodiazepine site antagonist flumazenil (10 min) and then received the next dose of drug (every 20 min) until the pre-CFA threshold was observed.
(§4) Drugs. The following drugs were used: HZ166, KRM-II-18B, and KRM-II-81, and were dissolved in a mixture containing 20% Dimethyl sulfoxide (DMSO), 10% Emulphor-620 (Rhodia Inc.), and 70% of 0.9% saline. Flumazenil (purchased from Cayman Chemical Company, MI) was dissolved in a mixture containing 10% ethanol, 40% propylene glycol, and 50% sterile water. Midazolam (Akorn, Inc.) was dissolved in 0.9% saline. Doses were expressed as the weight of the drug in milligrams per kilogram of body weight and drugs were administered intraperitoneally.

[3] = Liver microsomal stability, rat; format: in vitro ADME; conditions: for Rat Liver microsome stability (reported in % remaining): 37° C., 4 μM compound, 30 minutes
Procedure: as §1, §2, §3

[4] = tested on: Male NIH Swiss mice; test: Rotorod assay (ataxia); format: in vivo
Procedure: Male NIH Swiss mice (n=10) were dosed i.p. with vehicle (1% carboxymethyl cellulose) or one of the test compounds (10 or 30 mg/kg) 30 minutes prior to being tested on the rotorod. Mice were placed on a rod for two minutes at 4 revolutions per minute. […] Mice that fell twice failed the testing.
The rotorod assay (FIG. 5) is used to determine the ataxic effects, generally stemming from the α1 subtype, that compounds have in test subjects. Mice are trained to run on a slow, rotating cylinder for two minutes, and failure to stay on the rod may be due to ataxia. […] Each set of compounds were tested against a vehicle.
Male NIH Swiss mice (n=10/group) were trained on a rotorod (Ugo Basile 7650) at 4 r.p.m. for two minutes per training session prior to testing. On test day, mice were dosed i.p. with either vehicle (1% carboxymethyl cellulose) or one of the test compounds (10 or 30 mg/kg) 30 minutes prior to testing.

[5] = tested on: Rats; test: Food-maintained operant responding (rate response); format: in vivo; conditions: three-assay comparison
Procedure: Food-maintained operant responding (rate response). Rats (n=7) were placed in a chamber consisting of two (one active) levers. Rats were trained to press a lever (left) for a food pellet under a multiple-cycle procedure. […] The active period was set on a FR10 schedule and rats could receive a maximum of 5 food pellets. The cue light was terminated either after 5 minutes or once 5 food pellets were delivered. After each active period (every 20 minutes), rats received the next dose of drug for a duration of 2 hours. Data (rate per minute) was collected using Graphic State 3.03 software and interface (Coulbourn Instruments Inc.)
as §4

[6] = tested on: Rats; test: Horizontal wire test; format: in vivo; conditions: three-assay comparison
Procedure: Horizontal wire test. Rats (n=10) were lifted by the tail and allowed to grasp a horizontally strung wire with their forepaws and released. The inability to complete this task (within 3 seconds) was recorded 20 minutes after each injection of drug.
as §4

Compound	Dog Liver microsome stability (reported in % remaining) [1]	mechanical hyperalgesia in CFA-induced inflammatory pain [2]	selectivity of antihyperalgesic effect in three-assay comparison [2]	Rat Liver microsome stability (reported in % remaining) [3]	rotorod performance at 30 mg/kg ([4]; 30 mg/kg i.p., 30 minutes prior, 4 r.p.m., two minutes)	rate-suppressing activity, doses relative to antihyperalgesic doses [5]	muscle-relaxant activity, doses relative to antihyperalgesic doses [6]	Dog % Metabolized ([1]; in vitro metabolism, dog)	Rat % Metabolized ([3]; in vitro metabolism, rat)	ataxic / sedative effects in rotarod assay ([4]; 10 or 30 mg/kg i.p.)
C#Cc1ccc2c(c1)C(c1ccccc1F)=NCc1c(-c3cnco3)ncn1-2 [KRM-II-18B, 5-(8-Ethynyl-6-(2-fluorophenyl)-4H-benzo[f]imidazo[1,5-a][1,4]diazepin-3-yl)oxazole]	87 % remaining	much more active against hyperalgesia; also recorded: dose-dependently attenuated mechanical hyperalgesia	selectively produce antihyperalgesic effect	68 % remaining	failed multiple times	much larger doses	much larger doses			
C#Cc1ccc2c(c1)C(c1ccccn1)=NCc1c(-c3cnco3)ncn1-2 [KRM-II-81, 5-(8-Ethynyl-6-(pyridin-2-yl)-4H-benzo[f]imidazo[1,5-a][1,4]diazepin-3-yl)oxazole]	94 % remaining	much more active against hyperalgesia; also recorded: dose-dependently attenuated mechanical hyperalgesia	selectively produce antihyperalgesic effect	90 % remaining		much larger doses	much larger doses	5.9%	9.6%	less sedative effects than HZ-166; also recorded: no significant ataxic concerns
